Results published in patent US20220153732A1, “PROTEIN SECRETION INHIBITORS” (KEZAR LIFE SCIENCES, priority 2019, published 2022).

What was measured:
Assay type in all cases: cell-based
[1] = system: PD1-ss+10aa/Gaussia Luciferase; test: Dox-Induced PD1-ss-Gluc Assay; conditions: 24 hr doxycycline induction, 293FRT/TO cells, Gaussia luciferase signal; read-out: 24 hr Dox Inducible PD1ssGluc 293FRT/TO: Mean IC50
Description: (§1) Transfected cells were selected for resistance to the selectable markers Hygromycin and Blasticidin to create a stable cell line that contained the PD1-ss+10aa/Gaussia Luciferase cDNA insert whose expression was regulated under the T-REx™ system. The day before assay, cells were trypsinized and plated in 384-well tissue culture plates. The next day, compound dilutions in DMSO/media containing doxycycline were added to the wells and incubated at 37° C., 5% CO2.
(§2) For chemical structures that include one or more stereoisomers, but are illustrated without indicating stereochemistry, the assay data refers to a mixture of stereoisomers.

[2] = system: human multiple myeloma cell line NCI-H929; test: H929 Cell Viability Assay; conditions: 48 hr, NCI-H929 cells, Celltiter-Glo, read-out: 48 hr H929 Viability Celltiter-Glo: Mean EC50
Description: (§3) Plates were incubated at 37° C., 5% CO2 for 48 hours. After 48 hours, Celltiter-Glo® (Promega) was added to each well and luciferase signal was quantified using Tecan Infinite M1000 Pro for cell viability determination.
as §2

[3] = system: human multiple myeloma cell line U266B1; test: U266 Cell Viability Assay; conditions: U-266, 48 hr, U266B1 cells, Celltiter-Glo, read-out: 48 hr U266 Viability Celltiter-Glo: Mean EC50
Description: as §3, with “Cells were plated in 384-well tissue culture plates and treated with compound dilutions in DMSO/media. Plates” for “Plates”
as §2

[4] = system: IL-2-FL/Gaussia Luciferase; test: Dox Induced IL2-FL-Gluc Assay; conditions: 24 hr doxycycline induction, 293FRT/TO cells, Gaussia luciferase signal; read-out: 24 hr Dox Inducible IL2FLGIuc 293FRT/TO: Mean IC50
Description: as §1, with “IL-2-FL/Gaussia” for “PD1-ss+10aa/Gaussia”, “T-RExTM” for “T-REx™”, “CO2. […] For chemical structures that include one or more stereoisomers, but are illustrated without indicating stereochemistry, the assay data refers to a mixture of stereoisomers.” for “CO2.”

[5] = system: TNFα-FL/Gaussia Luciferase; test: Dox Induced TNFα-FL-Gluc Assay; conditions: 24 hr doxycycline induction, 293FRT/TO cells, Gaussia luciferase signal; read-out: 24 hr Dox Inducible TNFaFLGluc 293FRT/TO: Mean IC50
Description: as §1, with “TNFα-FL/Gaussia” for “PD1-ss+10aa/Gaussia”, “T-RExTM” for “T-REx™”, “CO2. […] For chemical structures that include one or more stereoisomers, but are illustrated without indicating stereochemistry, the assay data refers to a mixture of stereoisomers.” for “CO2.”

[6] = system: HER3-ss+4aa/Gaussia Luciferase; test: Dox-Induced Her3-ss-Gluc Assay; conditions: 24 hr doxycycline induction, 293FRT/TO cells, Gaussia luciferase signal; read-out: 24 hr Dox Inducible Her3(ss + 4)Gluc 293FRT/TO: Mean IC50
Description: as §1, with “HER3-ss+4aa/Gaussia” for “PD1-ss+10aa/Gaussia”
as §2

| IC50 [1] [nM] | EC50 [2] [nM] | EC50 [3] [nM] | IC50 [4] [nM] | IC50 [5] [nM] | IC50 [6] [nM] | Compound |
| --- | --- | --- | --- | --- | --- | --- |
| 148 | 18800 | > 25000 | 648 | 3300 | 382 | O=C(Nc1nc(CCc2ccccc2)cs1)c1cccn1Cc1ccncc1 [Compound A13, N-(4-phenethylthiazol-2-yl)-1-(pyridin-4-ylmethyl)-1H-pyrrole-2-carboxamide] |
| 153 | > 25000 | > 25000 | 1050 | 5110 | 568 | O=C(Nc1nc(/C=C/c2ccccc2)cs1)c1cccn1Cc1ccncc1 [Compound A14, 1-(pyridin-4-ylmethyl)-N-(4-styrylthiazol-2-yl)-1H-pyrrole-2-carboxamide] |
| 169 | 16600 | > 25000 | 110 | 5430 | 318 | CC(C)(OCC(F)(F)F)c1csc(NC(=O)c2cccn2Cc2ccncc2)n1 [Compound A15, 1-(pyridin-4-ylmethyl)-N-(4-(2-(2,2,2-trifluoroethoxy)propan-2-yl)thiazol-2-yl)-1H-pyrrole-2-carboxamide] |
| 185 | > 23900 | > 25000 | 266 | 5010 | 377 | CC(C)OC(C)(C)c1csc(NC(=O)c2cccn2Cc2ccncc2)n1 [Compound A16, N-(4-(2-isopropoxypropan-2-yl)thiazol-2-yl)-1-(pyridin-4-ylmethyl)-1H-pyrrole-2-carboxamide] |
| 191 | 20800 | > 25000 | 804 | 2240 | 560 | O=C(Nc1nc(Cc2ccccc2)cs1)c1cccn1Cc1ccncc1 [Compound A17, N-(4-benzylthiazol-2-yl)-1-(pyridin-4-ylmethyl)-1H-pyrrole-2-carboxamide] |
| 226 | 15100 | > 25000 | 718 | 1350 | 461 | C[C@@H](OC(C)(C)c1csc(NC(=O)c2cccn2Cc2ccncc2)n1)c1ccccc1 [Compound A18, (R)-N-(4-(2-(1-phenylethoxy)propan-2-yl)thiazol-2-yl)-1-(pyridin-4-ylmethyl)-1H-pyrrole-2-carboxamide] |
| 246 | > 25000 | > 25000 | 529 | 8540 | 492 | O=C(Nc1nc(C(F)(F)F)cs1)c1cccn1Cc1ccncc1 [Compound A19, 1-(pyridin-4-ylmethyl)-N-(4-(trifluoromethyl)thiazol-2-yl)-1H-pyrrole-2-carboxamide] |
| 248 | > 25000 | > 25000 | 351 | 7170 | 510 | Cc1sc(NC(=O)c2cccn2Cc2ccncc2)nc1C(C)OC(C)C (stereo not drawn) [Compound A20, N-(4-(1-isopropoxyethyl)-5-methylthiazol-2-yl)-1-(pyridin-4-ylmethyl)-1H-pyrrole-2-carboxamide] |
| 259 | > 25000 | > 25000 | 502 | 3680 | 590 | CC(c1ccccc1)c1csc(NC(=O)c2cccn2Cc2ccncc2)n1 (stereo not drawn) [Compound A21] |
| 271 | > 25000 | > 25000 | 460 | 8830 | 503 | CC1(C)CCc2sc(NC(=O)c3cccn3Cc3ccncc3)nc21 [Compound A22, N-(4,4-dimethyl-5,6-dihydro-4H-cyclopenta[d]thiazol-2-yl)-1-(pyridin-4-ylmethyl)-1H-pyrrole-2-carboxamide] |
| 290 | > 25000 | > 25000 | 429 | 5470 | 447 | CCC(C)c1csc(NC(=O)c2cccn2Cc2ccncc2)n1 (stereo not drawn) [Compound A23] |
| 303 | > 25000 | > 25000 | 477 | 11700 | 619 | Cc1cnccc1Cn1cccc1C(=O)Nc1nc(C(C)(C)OC(C)C)cs1 [Compound A24, N-(4-(2-isopropoxypropan-2-yl)thiazol-2-yl)-1-((3-methylpyridin-4-yl)methyl)-1H-pyrrole-2-carboxamide] |
| 314 | > 25000 | > 25000 | 490 | 9980 | 692 | CC(C)OC(C)(C)c1csc(NC(=O)c2cccn2Cc2ccncc2F)n1 [Compound A25, 1-((3-fluoropyridin-4-yl)methyl)-N-(4-(2-isopropoxypropan-2-yl)thiazol-2-yl)-1H-pyrrole-2-carboxamide] |
| 319 | > 25000 | > 25000 | 759 | 10700 | 817 | CC(C)c1csc(NC(=O)c2cccn2Cc2ccncc2)n1 [Compound A26, N-(4-isopropylthiazol-2-yl)-1-(pyridin-4-ylmethyl)-1H-pyrrole-2-carboxamide] |
| 445 | > 25000 | > 25000 | 320 | 9520 | 822 | CCOC(C)(C)c1csc(NC(=O)c2cccn2Cc2ccncc2)n1 [Compound A27, N-(4-(2-ethoxypropan-2-yl)thiazol-2-yl)-1-(pyridin-4-ylmethyl)-1H-pyrrole-2-carboxamide] |
| 462 | > 25000 | > 25000 | 401 | 3950 | 752 | CC(C)OC(C)c1csc(NC(=O)c2cccn2Cc2ccncc2)n1 (stereo not drawn) [Compound A28, N-(4-(1-isopropoxyethyl)thiazol-2-yl)-1-(pyridin-4-ylmethyl)-1H-pyrrole-2-carboxamide] |
| 488 | > 25000 | > 25000 | 935 | 19600 | 1240 | CC(F)(F)c1csc(NC(=O)c2cccn2Cc2ccncc2)n1 [Compound A29, N-(4-(1,1-difluoroethyl)thiazol-2-yl)-1-(pyridin-4-ylmethyl)-1H-pyrrole-2-carboxamide] |
| 552 | 22700 | > 25000 | 927 | 11800 | 809 | CC(C)OC(C)(C)c1nc(NC(=O)c2cccn2Cc2ccncc2)sc1Br [Compound A30] |
| 596 | > 25000 | > 25000 | 1340 | 11800 | 1630 | O=C(Nc1nc(C2CCC2)cs1)c1cccn1Cc1ccncc1 [Compound A31] |
| 633 | > 25000 | > 25000 | 1980 | > 20300 | 1330 | CCc1nc(NC(=O)c2cccn2Cc2ccncc2)sc1C [Compound A32, N-(4-ethyl-5-methylthiazol-2-yl)-1-(pyridin-4-ylmethyl)-1H-pyrrole-2-carboxamide] |
| 663 | 8990 | 6890 | 2470 | > 25000 | 1620 | O=C(Nc1nc(/C=C/c2ccccc2)cs1)c1cccn1CCCc1ccncc1 [Compound A33, 1-(3-(pyridin-4-yl)propyl)-N-(4-styrylthiazol-2-yl)-1H-pyrrole-2-carboxamide] |
| 674 | > 25000 | > 25000 | 4240 | > 25000 | 2420 | O=C(Nc1ncc(Cc2ccccc2)s1)c1cccn1Cc1ccncc1 [Compound A34, N-(5-benzylthiazol-2-yl)-1-(pyridin-4-ylmethyl)-1H-pyrrole-2-carboxamide] |
